Tests used:
Test in all cases: in vitro antibacterial evaluation, MIC by broth dilution
Assay type in all cases: cell-based
Enterococcus sp. = details: broth dilution, 18 hours at 35° C.
How it was run: (§1)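 Broth dilution per NCCLS M7-A2 in Mueller-Hinton II medium, inoculum 5×10^5 CFU/mL, antibiotic range 64-0.06 μg/mL. MIC taken as lowest concentration inhibiting growth; Gram-positive panel includes recent clinical isolates resistant to methicillin, penicillin and/or vancomycin.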

Staphylococcus sp. = details: broth dilution, 18 hours at 35° C.
How it was run: as §1

Streptococcus sp. = details: broth dilution, 18 hours at 35° C.
How it was run: as §1

Escherichia coli = details: 18 hours at 35° C.

CCCCCNC(=O)OCC1OC(OC2C(CO)OC(Oc3ccc(CC4NC(=O)C(C(C)c5ccccc5)NC(=O)CNC(=O)C(CO)NC(=O)C(C(O)C5CNC(=N)N5C5OC(CO)C(O)C(O)C5O)NC(=O)C(C(O)C5CNC(=N)N5)NC4=O)cc3)C(O)C2O)C(O)C(O)C1O (centres unmarked) [Example 251b]
64 mg/L: MIC Enterococcus avium (GC 4558) (Enterococcus sp.) | MIC Enterococcus faecalis (ATCC 29212) (Enterococcus sp.) | MIC Enterococcus faecalis (GC 4552) (Enterococcus sp.) | MIC Enterococcus faecalis (GC 4553) (Enterococcus sp.) | MIC Enterococcus faecalis (GC 4554) (Enterococcus sp.) | MIC Enterococcus faecium (GC 2243) (Enterococcus sp.) | MIC Enterococcus faecium (GC 4556) (Enterococcus sp.) | MIC Enterococcus faecalis (ATCC 29212) (Enterococcus sp.; strain ATCC 29212) | MIC Enterococcus faecium (GC 2243) (Enterococcus sp.; strain GC 2243) | MIC Enterococcus faecalis (GC 4552) (Enterococcus sp.; strain GC 4552) | MIC Enterococcus faecalis (GC 4553) (Enterococcus sp.; strain GC 4553) | MIC Enterococcus faecalis (GC 4554) (Enterococcus sp.; strain GC 4554) | MIC Enterococcus faecium (GC 4556) (Enterococcus sp.; strain GC 4556) | MIC Enterococcus avium (GC 4558) (Enterococcus sp.; strain GC 4558)
8 mg/L: MIC Coagulase Negative Staphylococcus (GC 4547) (Staphylococcus sp.) | MIC Coagulase Negative Staphylococcus (GC 4548) (Staphylococcus sp.) | MIC Staphylococcus aureus (GC 1131) (Staphylococcus sp.) | MIC Staphylococcus aureus (GC 4541) (Staphylococcus sp.) | MIC Staphylococcus aureus (GC 4542) (Staphylococcus sp.) | MIC Staphylococcus aureus (GC 4545) (Staphylococcus sp.) | MIC Staphylococcus aureus-SMITH (GC 4543) (Staphylococcus sp.) | MIC Staphylococcus haemolyticus (GC 4546) (Staphylococcus sp.) | MIC Staphylococcus aureus (GC 1131) (Staphylococcus sp.; strain GC 1131) | MIC Staphylococcus aureus (GC 4541) (Staphylococcus sp.; strain GC 4541) | MIC Staphylococcus aureus (GC 4542) (Staphylococcus sp.; strain GC 4542) | MIC Staphylococcus aureus-SMITH (GC 4543) (Staphylococcus sp.; strain GC 4543) | MIC Staphylococcus aureus (GC 4545) (Staphylococcus sp.; strain GC 4545) | MIC Staphylococcus haemolyticus (GC 4546) (Staphylococcus sp.; strain GC 4546) | MIC Coagulase Negative Staphylococcus (GC 4547) (Staphylococcus sp.; strain GC 4547) | MIC Coagulase Negative Staphylococcus (GC 4548) (Staphylococcus sp.; strain GC 4548)
4 mg/L: MIC Enterococcus faecium (GC 4557) (Enterococcus sp.) | MIC Enterococcus faecium (GC 4557) (Enterococcus sp.; strain GC 4557) | MIC Coagulase Negative Staphylococcus (GC 4549) (Staphylococcus sp.) | MIC Coagulase Negative Staphylococcus (ID-3941) (Staphylococcus sp.) | MIC Coagulase Negative Staphylococcus (GC 4549) (Staphylococcus sp.; strain GC 4549) | MIC Coagulase Negative Staphylococcus (ID-3941) (Staphylococcus sp.; strain ID-3941) | MIC Streptococcus agalactiae (GC 4564) (Streptococcus sp.) | MIC Streptococcus agalactiae (GC 4564) (Streptococcus sp.; strain GC 4564)
32 mg/L: MIC Enterococcus faecalis (GC 2242) (Enterococcus sp.) | MIC Enterococcus faecalis (GC 2242) (Enterococcus sp.; strain GC 2242)
1 mg/L: MIC Streptococcus pneumoniae (GC 4565) (Streptococcus sp.) | MIC Streptococcus pneumoniae (GC 4565) (Streptococcus sp.; strain GC 4565)
16 mg/L: MIC Coagulase Negative Staphylococcus (GC 4551) (Staphylococcus sp.) | MIC Staphylococcus aureus (ATCC 29213) (Staphylococcus sp.) | MIC Staphylococcus aureus (GC 4544) (Staphylococcus sp.) | MIC Staphylococcus aureus (ATCC 29213) (Staphylococcus sp.; strain ATCC 29213) | MIC Staphylococcus aureus (GC 4544) (Staphylococcus sp.; strain GC 4544) | MIC Coagulase Negative Staphylococcus (GC 4551) (Staphylococcus sp.; strain GC 4551)
>64 mg/L: MIC Escherichia coli (ATCC 25922) (Escherichia coli) | MIC Escherichia coli (GC 4559) (Escherichia coli)
2 mg/L: MIC Streptococcus pyogenes (ID-3187) (Streptococcus sp.) | MIC Streptococcus pyogenes (ID-3187) (Streptococcus sp.; strain ID-3187) | MIC Escherichia coli (GC 4560) (Escherichia coli)

— patent publication US6914045B2, “Glycopeptide antibiotics” (Wyeth Holdings Corporation, priority 2001, dated 2005)
